Source: patent US12660819B2, “Herbicidal derivatives” (SYNGENTA CROP PROTECTION AG, priority 2020, dated 2026)

What was measured:
Assay type in all cases: in vivo
[1] = system: Abutilon theophrasti (ABUTH); test: Post-emergence Test (glasshouse, percentage damage to the plant); conditions: post-emergence spray, 1000 g/ha unless otherwise stated, evaluated after 13 days
How it was run: (§1)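 Seeds are sown in standard soil under controlled glasshouse conditions. The pots are then sprayed at 1000 g/ha, unless otherwise stated, with compound in acetone/water (50:50) containing 0.5% Tween 20. After 13 days further growth, percentage plant damage is scored from 1 (0-20%) to 5 (81-100%).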

[2] = system: Amaranthus retoflexus (AMARE); test: as above; conditions: post-emergence spray, 1000 g/ha unless otherwise stated, evaluated after 13 days
How it was run: as §1

[3] = system: Echinochloa crus-galli (ECHCG); test: as above; conditions: post-emergence spray, 1000 g/ha unless otherwise stated, evaluated after 13 days
How it was run: as §1

[4] = system: Ipomoea hederacea (IPOHE); test: as above; conditions: post-emergence spray, 1000 g/ha unless otherwise stated, evaluated after 13 days
How it was run: (§2)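 Sown pots; spray 1000 g/ha (unless stated) in acetone/water 50:50 + 0.5% Tween 20; glasshouse 24/16 °C, 14 h light, 65% RH; watered twice daily; % damage read at 13 days, scored 1–5.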

Setaria faberi (SETFA) [5] = test: as above; conditions: post-emergence spray, 1000 g/ha unless otherwise stated, evaluated after 13 days
How it was run: as §2

Zea mays (ZEAMX) [6] = test: as above; conditions: post-emergence spray, 1000 g/ha unless otherwise stated, evaluated after 13 days
How it was run: as §2

[7] = system: Amaranthus retoflexus (AMARE); test: Pre-emergence Test (glasshouse, percentage damage to the plant); conditions: 1000 g/ha unless otherwise stated, five-point scale
Setaria faberi (SETFA) [8] = test: as above; conditions: 1000 g/ha unless otherwise stated, five-point scale
[9] = system: Echinochloa crus-galli (ECHCG); test: as above; conditions: 1000 g/ha unless otherwise stated, five-point scale
[10] = system: Ipomoea hederacea (IPOHE); test: as above; conditions: 1000 g/ha unless otherwise stated, five-point scale
[11] = system: Abutilon theophrasti (ABUTH); test: as above; conditions: 1000 g/ha unless otherwise stated, five-point scale
Zea mays (ZEAMX) [12] = test: as above; conditions: 1000 g/ha unless otherwise stated, five-point scale

Compound | Post-emergence Test ABUTH, percentage damage to the plant (five-point scale) [1] | Post-emergence Test AMARE, percentage damage to the plant (five-point scale) [2] | Post-emergence Test ECHCG, percentage damage to the plant (five-point scale) [3] | Post-emergence Test IPOHE, percentage damage to the plant (five-point scale) [4] | Post-emergence Test SETFA, percentage damage to the plant (five-point scale) (Setaria faberi (SETFA) [5]) | Post-emergence Test ZEAMX, percentage damage to the plant (five-point scale) (Zea mays (ZEAMX) [6]) | percentage damage to the plant, AMARE [7] | percentage damage to the plant, SETFA (Setaria faberi (SETFA) [8]) | percentage damage to the plant, ECHCG [9] | percentage damage to the plant, IPOHE [10] | percentage damage to the plant, ABUTH [11] | percentage damage to the plant, ZEAMX (Zea mays (ZEAMX) [12])
CCOC(=O)c1c(-c2ccc(F)c(F)c2)n(CC)c(C)c(-c2ccc(Cl)cc2)c1=O [Compound 152, ethyl 5-(4-chlorophenyl)-2-(3,4-difluorophenyl)-1-ethyl-6-methyl-4-oxo-pyridine-3-carboxylate] | 0 | 0 | 0 | 0 | 0 | 0 | 0 | 0 | 0 | 0 | 0 | 0
CCn1c(C)c(-c2ccc(Cl)c(C#N)c2)c(=O)c(C(=O)O)c1-c1ccc(Cl)c(Cl)c1 [Compound 57, 5-(4-chloro-3-cyano-phenyl)-2-(3,4-dichlorophenyl)-1-ethyl-6-methyl-4-oxo-pyridine-3-carboxylic acid] | 3 (3=41-60%) | 4 (4=61-80%) | 3 (3=41-60%) | 2 (2=21-40%) | 4 (4=61-80%) | 2 (2=21-40%) | 3 (3=41-60%) | 4 (4=61-80%) | 3 (3=41-60%) | 2 (2=21-40%) | 1 (1=0-20%) | 2 (2=21-40%)
CCn1c(C)c(-c2cc(C)c(OC)c(C)c2)c(=O)c(C(=O)O)c1-c1ccc(Cl)c(Cl)c1 [Compound 71, 2-(3,4-dichlorophenyl)-1-ethyl-5-(4-methoxy-3,5-dimethyl-phenyl)-6-methyl-4-oxo-pyridine-3-carboxylic acid] | 2 (2=21-40%) | 1 (1=0-20%) | 1 (1=0-20%) | 1 (1=0-20%) | 1 (1=0-20%) | 1 (1=0-20%) | 2 (2=21-40%) | 2 (2=21-40%) | 1 (1=0-20%) | 1 (1=0-20%) | 1 (1=0-20%) | 1 (1=0-20%)
CCn1c(C)c(-c2ccc(Cl)c(C(=O)NC3CC3)c2)c(=O)c(C(=O)O)c1-c1ccc(Cl)c(Cl)c1 [Compound 83, 5-[4-chloro-3-(cyclopropylcarbamoyl)phenyl]-2-(3,4-dichlorophenyl)-1-ethyl-6-methyl-4-oxo-pyridine-3-carboxylic acid] | 2 (2=21-40%) | 1 (1=0-20%) | 1 (1=0-20%) | 1 (1=0-20%) | 2 (2=21-40%) | 1 (1=0-20%) | 1 (1=0-20%) | 1 (1=0-20%) | 1 (1=0-20%) | 1 (1=0-20%) | 1 (1=0-20%) | 1 (1=0-20%)
CCn1c(C)c(-c2cc(F)cc(OCC(F)(F)F)c2)c(=O)c(C(=O)O)c1-c1ccc(Cl)c(Cl)c1 [Compound 94, 2-(3,4-dichlorophenyl)-1-ethyl-5-[3-fluoro-5-(2,2,2-trifluoroethoxy)phenyl]-6-methyl-4-oxo-pyridine-3-carboxylic acid] | 1 (1=0-20%) | 1 (1=0-20%) | 1 (1=0-20%) | 1 (1=0-20%) | 1 (1=0-20%) | 1 (1=0-20%) | 1 (1=0-20%) | 1 (1=0-20%) | 1 (1=0-20%) | 1 (1=0-20%) | 1 (1=0-20%) | 1 (1=0-20%)
